Measured values: the NIST ThermoML archive (doi:10.1016/j.jct.2016.11.032)
± gives the expanded uncertainty stated by the source.

What was measured:
[1] = Crystal; DTA
[2] = Molar enthalpy of transition or fusion; settings: Crystal; DSC

## CC(C)(C)C(O)(CCc1ccc(Cl)cc1)Cn1cncn1 (configuration not stated) [tebuconazole]
[1]
  Normal melting temperature: 100.32 ± 1.1 °C
[2]
  Molar enthalpy of transition or fusion: 6.92 ± 0.237 kcal/mol
